These results are taken from paper PMC10122081 (European Journal of Drug Metabolism and Pharmacokinetics, 2023).

One data set deals with T1, CYP2B6 (Homo sapiens, UniProt P20813).
T1 sequence (P20813 1-491): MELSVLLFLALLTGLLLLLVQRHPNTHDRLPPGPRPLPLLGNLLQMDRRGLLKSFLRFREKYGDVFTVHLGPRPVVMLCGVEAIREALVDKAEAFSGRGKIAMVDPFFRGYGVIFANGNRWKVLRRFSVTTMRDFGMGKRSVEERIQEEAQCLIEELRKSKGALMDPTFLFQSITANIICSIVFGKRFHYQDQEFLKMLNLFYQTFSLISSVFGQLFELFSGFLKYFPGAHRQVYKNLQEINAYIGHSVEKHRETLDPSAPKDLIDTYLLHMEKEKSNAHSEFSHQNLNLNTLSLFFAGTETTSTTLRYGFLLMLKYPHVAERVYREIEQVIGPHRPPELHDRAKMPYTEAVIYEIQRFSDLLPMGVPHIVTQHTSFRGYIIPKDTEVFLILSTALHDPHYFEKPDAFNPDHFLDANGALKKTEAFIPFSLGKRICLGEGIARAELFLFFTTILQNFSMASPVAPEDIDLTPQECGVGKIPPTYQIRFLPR
Description: CYP phenotyping. As to conditions: CYP2B6 bactosomes, 1 µM DMT fumarate.

Another data set deals with CYP2D6 (Homo sapiens, UniProt P10635). Description: CYP phenotyping. As to conditions: CYP2D6 bactosomes, 1 µM DMT fumarate.
Data set [1] is classed as in vivo, human.
Another data set deals with CYP2C9 (Homo sapiens, UniProt P11712). Description: CYP phenotyping. As to conditions: CYP2C9 bactosomes, 1 µM DMT fumarate.
A further data set is described as follows: physchem. As to conditions: pH 7.4. The format is physicochemical.
Another data set concerns the target CYP3A4 (Homo sapiens, UniProt P08684). Description: CYP phenotyping. As to conditions: CYP3A4 bactosomes, 1 µM DMT fumarate.
For the next data set, the target named is CYP3A5 (Homo sapiens, UniProt P20815). Description: CYP phenotyping. As to conditions: CYP3A5 bactosomes, 1 µM DMT fumarate.
The target in a further data set is T2, CYP1A2 (Homo sapiens, UniProt P05177).
T2 sequence (P05177 1-516): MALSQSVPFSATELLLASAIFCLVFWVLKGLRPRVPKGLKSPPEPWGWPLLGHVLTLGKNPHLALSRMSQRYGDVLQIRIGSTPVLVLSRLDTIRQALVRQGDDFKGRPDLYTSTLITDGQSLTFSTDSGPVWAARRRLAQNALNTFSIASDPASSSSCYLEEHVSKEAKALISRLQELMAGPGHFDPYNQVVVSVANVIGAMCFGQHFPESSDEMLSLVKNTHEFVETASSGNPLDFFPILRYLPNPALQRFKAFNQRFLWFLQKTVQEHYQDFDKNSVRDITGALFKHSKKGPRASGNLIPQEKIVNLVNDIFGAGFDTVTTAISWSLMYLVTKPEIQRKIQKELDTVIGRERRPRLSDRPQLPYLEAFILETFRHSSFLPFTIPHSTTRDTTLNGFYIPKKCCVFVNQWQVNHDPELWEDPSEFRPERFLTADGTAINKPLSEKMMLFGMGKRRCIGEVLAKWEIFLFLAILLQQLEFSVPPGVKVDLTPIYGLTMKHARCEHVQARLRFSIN
Description: CYP phenotyping. As to conditions: CYP1A2 bactosomes, 1 µM DMT fumarate.

For a further data set, the system named is healthy subjects. Description: Phase I clinical safety and tolerability. The format is in vivo, human. As to conditions: all four doses, 9–21.5 mg IV.
The subject of another data set is MAO-A. Description: Metabolic stability in human liver mitochondrial fraction. As to conditions: both, liver mitochondrial fractions, with clorgyline 100 nM. Type of data set: in vitro ADME.
The conditions of data set [2]: bolus IV administration, healthy volunteers; cited from earlier work.
A short description of another data set: Blood:plasma ratio. Type of data set: in vitro ADME. As to conditions: human, fresh whole blood and plasma.
For a further data set, the target named is T3, CYP2C8 (Homo sapiens, UniProt P10632).
T3 sequence (P10632 1-490): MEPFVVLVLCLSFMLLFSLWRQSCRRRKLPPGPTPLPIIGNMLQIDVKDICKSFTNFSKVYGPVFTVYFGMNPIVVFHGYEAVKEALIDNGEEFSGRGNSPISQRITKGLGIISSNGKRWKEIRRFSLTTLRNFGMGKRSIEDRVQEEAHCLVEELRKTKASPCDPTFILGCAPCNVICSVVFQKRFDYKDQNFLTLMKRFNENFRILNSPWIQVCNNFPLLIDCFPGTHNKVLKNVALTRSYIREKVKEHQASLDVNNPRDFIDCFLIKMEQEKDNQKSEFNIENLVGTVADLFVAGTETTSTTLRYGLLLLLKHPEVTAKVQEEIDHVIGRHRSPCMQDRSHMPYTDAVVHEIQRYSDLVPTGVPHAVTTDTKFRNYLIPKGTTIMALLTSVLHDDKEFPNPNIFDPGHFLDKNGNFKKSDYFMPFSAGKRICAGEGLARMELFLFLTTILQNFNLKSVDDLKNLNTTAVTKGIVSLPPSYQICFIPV
Description: CYP phenotyping. As to conditions: CYP2C8 bactosomes, 1 µM DMT fumarate.

A short description of another data set: Plasma protein binding. As to conditions: plasma protein binding result.
Another data set addresses CYP2C19 (Homo sapiens, UniProt P33261). Description: CYP phenotyping. As to conditions: CYP2C19 bactosomes, 1 µM DMT fumarate.

“And” between values parts separate entries of the source, which are not always exact repeats. Identical values can stand only once.

Chain of CYP2D6 (P10635 whole entry): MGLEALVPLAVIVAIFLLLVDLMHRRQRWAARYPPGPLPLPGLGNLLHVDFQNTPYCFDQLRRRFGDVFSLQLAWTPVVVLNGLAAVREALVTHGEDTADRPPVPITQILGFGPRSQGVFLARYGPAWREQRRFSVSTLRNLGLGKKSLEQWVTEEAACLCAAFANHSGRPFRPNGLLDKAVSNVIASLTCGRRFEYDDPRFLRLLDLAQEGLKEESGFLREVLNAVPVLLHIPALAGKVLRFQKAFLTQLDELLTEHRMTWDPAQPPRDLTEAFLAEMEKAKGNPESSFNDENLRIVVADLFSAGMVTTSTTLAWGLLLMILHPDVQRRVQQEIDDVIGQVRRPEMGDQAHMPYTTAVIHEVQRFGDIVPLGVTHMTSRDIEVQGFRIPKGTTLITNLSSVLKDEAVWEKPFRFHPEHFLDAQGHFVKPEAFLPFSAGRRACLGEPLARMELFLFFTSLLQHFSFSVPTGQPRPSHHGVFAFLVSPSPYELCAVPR
Chain of CYP2C19 (P33261 whole entry): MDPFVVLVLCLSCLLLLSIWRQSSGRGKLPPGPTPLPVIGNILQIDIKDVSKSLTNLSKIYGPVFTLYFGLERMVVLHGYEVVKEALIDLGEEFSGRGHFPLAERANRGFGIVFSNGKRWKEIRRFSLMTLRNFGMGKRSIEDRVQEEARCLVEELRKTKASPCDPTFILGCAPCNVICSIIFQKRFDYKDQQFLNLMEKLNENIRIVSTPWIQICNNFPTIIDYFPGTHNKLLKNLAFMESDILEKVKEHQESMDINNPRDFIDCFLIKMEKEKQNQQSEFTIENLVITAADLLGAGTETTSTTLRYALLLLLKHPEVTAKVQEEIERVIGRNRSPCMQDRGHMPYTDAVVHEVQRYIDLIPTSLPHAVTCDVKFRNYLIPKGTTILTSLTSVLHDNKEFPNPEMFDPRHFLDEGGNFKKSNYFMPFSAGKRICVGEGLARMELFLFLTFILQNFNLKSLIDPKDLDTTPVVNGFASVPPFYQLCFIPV
Chain of CYP3A5 (P20815 whole entry): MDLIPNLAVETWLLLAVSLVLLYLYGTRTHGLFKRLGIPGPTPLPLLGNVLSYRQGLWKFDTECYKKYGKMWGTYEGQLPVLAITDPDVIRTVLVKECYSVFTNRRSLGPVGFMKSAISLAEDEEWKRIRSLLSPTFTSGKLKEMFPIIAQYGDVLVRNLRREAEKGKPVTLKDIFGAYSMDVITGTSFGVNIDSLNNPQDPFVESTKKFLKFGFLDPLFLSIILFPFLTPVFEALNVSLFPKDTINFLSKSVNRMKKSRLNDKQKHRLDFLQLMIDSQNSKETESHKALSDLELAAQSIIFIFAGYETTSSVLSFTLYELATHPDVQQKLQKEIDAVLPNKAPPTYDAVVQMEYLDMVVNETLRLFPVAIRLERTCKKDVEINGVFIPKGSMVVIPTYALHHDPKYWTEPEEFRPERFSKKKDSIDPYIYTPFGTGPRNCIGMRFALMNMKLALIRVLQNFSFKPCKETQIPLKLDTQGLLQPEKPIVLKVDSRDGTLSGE
Chain of CYP3A4 (P08684 whole entry): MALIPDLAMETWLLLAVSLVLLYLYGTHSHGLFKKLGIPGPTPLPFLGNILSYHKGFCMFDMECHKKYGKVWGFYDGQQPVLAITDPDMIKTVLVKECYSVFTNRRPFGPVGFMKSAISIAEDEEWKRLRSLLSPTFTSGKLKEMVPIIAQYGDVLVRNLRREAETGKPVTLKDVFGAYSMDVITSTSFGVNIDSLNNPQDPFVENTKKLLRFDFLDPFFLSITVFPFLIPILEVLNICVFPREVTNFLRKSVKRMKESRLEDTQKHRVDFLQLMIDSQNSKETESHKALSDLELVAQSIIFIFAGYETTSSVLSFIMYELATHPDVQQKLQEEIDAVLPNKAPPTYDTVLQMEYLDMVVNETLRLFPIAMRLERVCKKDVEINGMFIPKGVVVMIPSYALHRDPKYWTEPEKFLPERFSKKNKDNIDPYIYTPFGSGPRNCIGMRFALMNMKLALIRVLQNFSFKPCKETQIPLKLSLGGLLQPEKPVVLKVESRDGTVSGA
Chain of CYP2C9 (P11712 whole entry): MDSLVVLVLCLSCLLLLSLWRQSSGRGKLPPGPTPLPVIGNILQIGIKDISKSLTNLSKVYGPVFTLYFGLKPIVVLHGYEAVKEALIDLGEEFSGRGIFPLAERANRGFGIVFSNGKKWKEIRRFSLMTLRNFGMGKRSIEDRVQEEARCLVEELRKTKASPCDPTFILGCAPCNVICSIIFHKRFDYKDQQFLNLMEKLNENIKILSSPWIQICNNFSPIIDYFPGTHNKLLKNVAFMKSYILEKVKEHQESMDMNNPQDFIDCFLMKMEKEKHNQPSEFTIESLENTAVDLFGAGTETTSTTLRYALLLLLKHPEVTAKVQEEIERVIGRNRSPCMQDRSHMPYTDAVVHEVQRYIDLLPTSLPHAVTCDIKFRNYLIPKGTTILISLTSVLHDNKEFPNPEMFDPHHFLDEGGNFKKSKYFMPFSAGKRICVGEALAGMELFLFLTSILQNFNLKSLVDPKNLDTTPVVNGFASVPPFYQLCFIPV

With `CN(C)CCc1c[nH]c2ccccc12` [DMT, N,N-dimethyltryptamine], the “Intrinsic clearance (no turnover detected)” value at CYP2B6, on CYP2C9, on CYP3A4, at CYP3A5, at CYP1A2 and on CYP2C8 was less than 29 µl/min/nmol CYP in each case. In addition, the Intrinsic clearance is 801 µl/min/nmol CYP at CYP2D6 and 37 µl/min/nmol CYP at CYP2C19. Further, in [1] (all cohorts), the “Mean measured concentrations of DMT at the 120 min and 240 min time points” value was less than 0.1 ng/mL. Besides, the concentration at 5 min in data set [1] (human, plasma, intravenous, 6 mg, Individual C5min, following a 6 mg dose over 5 min, across all dose cohorts) fell in the range of 3.32 to 43 ng/mL. In addition, the half-life (in general, the time needed for the level to fall by half in the phase considered) in [1] (human, plasma, iv, Mean elimination half-life (plasma), all doses, 9–21.5 mg IV 10-min infusion) was 10 to 12 min. The logD (as a rule, lipophilicity at a set pH, counting ionised and neutral species) in the data set “physchem” came out at 0.15. Also, in the data set with healthy subjects, the Safety and tolerability result is “safe and well tolerated”. In the data set on healthy subjects, the Serious adverse events result is “no serious AEs”. For the same compound, the intrinsic clearance (microsomal CLint) (usually the capacity of the preparation to metabolise the compound, expressed as a volume cleared per time) at 3.1 µM in the data set with MAO-A was less than 3.9 µL/min/mg. For the same compound, the “Time to peak blood concentrations” value in data set [2] is recorded as “approximately 2 min”. The blood plasma ratio at 30 min, 1 µM in the data set “Blood:plasma ratio” amounted to 1.53. Besides, in the data set “Plasma protein binding”, the “Unbound in human plasma” value is > 65% and 67.7%.
